# ChEMBL document CHEMBL5729501, “Isoindolines as HDAC inhibitors” (2022)
# Target: T1, Histone deacetylase 11 (Homo sapiens, UniProt Q96DB2)
# T1 sequence (Q96DB2 whole entry): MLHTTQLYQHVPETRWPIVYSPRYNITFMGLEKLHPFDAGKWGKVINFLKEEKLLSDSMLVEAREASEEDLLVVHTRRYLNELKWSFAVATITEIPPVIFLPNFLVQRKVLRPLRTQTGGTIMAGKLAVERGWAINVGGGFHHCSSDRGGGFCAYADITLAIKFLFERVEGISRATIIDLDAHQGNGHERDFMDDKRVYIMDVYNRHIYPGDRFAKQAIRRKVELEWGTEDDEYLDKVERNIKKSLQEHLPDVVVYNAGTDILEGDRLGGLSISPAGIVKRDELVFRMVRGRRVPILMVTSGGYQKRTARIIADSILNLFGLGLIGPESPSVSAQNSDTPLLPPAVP
# Assay: In Vitro Histone Deacetylase Assay II: The measurement of HD AC 11 deacetylase activity was performed using an electrophoretic mobility shift assay by Nanosyn (Santa Clara, Calif.). Full length human recombinant HD AC 11 protein was expressed in baculoviral system and purified by affinity chromatography. The enzymatic reactions were assembled in 384 well plates in a total volume of 25 μL in a reaction buffer composing: 100 mM HEPES, pH 7.5, 25 mM KCl, 0.1% bovine serum albumin, 0.01% Triton X-100, 1% DMSO (from compounds), 2 μM of the fluorescently labeled peptide substrate and enzyme. The enzyme was added at a final concentration of 10 nM. The peptide substrate FAM-RHKK(tri-fluor-Ac)—NH2 was used. The compounds were tested at 12 concentrations spaced by 3× dilution intervals. Negative control samples (0%-inhibition in the absence of inhibitor) and positive control samples (100%-inhibition) were assembled in replicates of four in each assay plate. The reactions were incubated at 25° C. and quenched by the addition of 45 μL of termination buffer (100 mM HEPES, pH 7.5, 0.01% Triton X-100, 0.05% SDS).The terminated assay plates were analyzed on LabChip® 3000 microfluidic electrophoresis instrument (Perkin Elmer/Caliper Life Sciences). The fluorescence intensity of the electrophoretically separated de-acetylated product and substrate peptide was measured. […]
smiles,measurement,value
O=C(NO)c1cccc2c1CN(c1nc3ccccc3[nH]1)C2,IC50,< 500 nM
